# From US12139499B2, “Heteroaryl compounds for treating Huntington's disease” (PTC THERAPEUTICS, INC., priority 2018, dated 2024)
# System: Endogenous Huntingtin Protein
# Test: Endogenous Huntingtin Protein Assay (ELISA-based MSD electrochemiluminescence)
# Assay type: cell-based
# Conditions: Table 1
# Method in brief: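 Huntingtin was captured overnight at 4 °C on plates coated with 1 μg/mL MW1 (polyQ-expanded) or MAB2166 antibody and BSA-blocked. Detection used a rabbit monoclonal and then a SULFO-TAG goat anti-rabbit antibody (0.25 μg/mL, 1 h each, room temperature). Signal was read by electrochemiluminescence.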
row,IC50 [µM],SMILES
1,≤ 0.1,"Cc1cn2cc(-c3cc4sc(OC5CC(C)(C)NC(C)(C)C5)nc4cn3)cc(F)c2n1 [Compound 310, 6-(8-fluoro-2-methylimidazo[1,2-a]pyridin-6-yl)-2-[(2,2,6,6-tetramethylpiperidin-4-yl)oxy][1,3]thiazolo[4,5-c]pyridine]"
2,≤ 0.1,"Cn1cc2cc(-c3cc4sc(OC5CC(C)(C)NC(C)(C)C5)nc4cn3)cc(C#N)c2n1 [Compound 311, 2-methyl-5-{2-[(2,2,6,6-tetramethylpiperidin-4-yl)oxy][1,3]thiazolo[4,5-c]pyridin-6-yl}-2H-indazole-7-carbonitrile]"
3,0.1 to 0.5,"Cn1cc2cc(-c3cc4sc(OC5CC(C)(C)NC(C)(C)C5)nc4cn3)cc(F)c2n1 [Compound 312, 6-(7-fluoro-2-methyl-2H-indazol-5-yl)-2-[(2,2,6,6-tetramethylpiperidin-4-yl)oxy][1,3]thiazolo[4,5-c]pyridine]"
4,0.1 to 0.5,"Cc1cn2cc(-c3cc4sc(OC5CCNCC5)nc4cn3)cc(C#N)c2n1 [Compound 313, 2-methyl-6-{2-[(piperidin-4-yl)oxy][1,3]thiazolo[4,5-c]pyridin-6-yl}imidazo[1,2-a]pyridine-8-carbonitrile]"
5,0.1 to 0.5,"Cc1cn2cc(-c3cc4sc(OC5CCNCC5)nc4cn3)cc(F)c2n1 [Compound 314, 6-(8-fluoro-2-methylimidazo[1,2-a]pyridin-6-yl)-2-[(piperidin-4-yl)oxy][1,3]thiazolo[4,5-c]pyridine]"
6,0.1 to 0.5,"Cn1cc2cc(-c3cc4sc(OC5CCNCC5)nc4cn3)cc(C#N)c2n1 [Compound 315, 2-methyl-5-{2-[(piperidin-4-yl)oxy][1,3]thiazolo[4,5-c]pyridin-6-yl}-2H-indazole-7-carbonitrile]"
7,0.1 to 0.5,"Cn1cc2cc(-c3cc4sc(OC5CCNCC5)nc4cn3)cc(F)c2n1 [Compound 316, 6-(7-fluoro-2-methyl-2H-indazol-5-yl)-2-[(piperidin-4-yl)oxy][1,3]thiazolo[4,5-c]pyridine]"
8,≤ 0.1,"Cc1cn2cc(-c3cc(F)c4nc(OC5CCNCC5)sc4c3)cc(C#N)c2n1 [Compound 317, 6-{4-fluoro-2-[(piperidin-4-yl)oxy]-1,3-benzothiazol-6-yl}-2-methylimidazo[1,2-a]pyridine-8-carbonitrile]"
9,≤ 0.1,"Cn1cc2cc(-c3cc(F)c4nc(OC5CCNCC5)sc4c3)cc(C#N)c2n1 [Compound 318, 5-{4-fluoro-2-[(piperidin-4-yl)oxy]-1,3-benzothiazol-6-yl}-2-methyl-2H-indazole-7-carbonitrile]"
10,≤ 0.1,"Cc1cn2cc(-c3cc(F)c4nc(OC5CCNCC5)sc4c3)cc(C)c2n1 [Compound 319, 6-(2,8-dimethylimidazo[1,2-a]pyridin-6-yl)-4-fluoro-2-[(piperidin-4-yl)oxy]-1,3-benzothiazole]"
11,≤ 0.1,"Cc1cn2nc(-c3cc(F)c4nc(OC5CCN(C)CC5)sc4c3)cc(C)c2n1 [Compound 320, 6-{4-fluoro-2-[(1-methylpiperidin-4-yl)oxy]-1,3-benzothiazol-6-yl}-2,8-dimethylimidazo[1,2-b]pyridazine]"
12,≤ 0.1,"CCN1CCC(Oc2nc3c(F)cc(-c4cc(C)c5nc(C)cn5n4)cc3s2)CC1 [Compound 321, 6-{2-[(1-ethylpiperidin-4-yl)oxy]-4-fluoro-1,3-benzothiazol-6-yl}-2,8-dimethylimidazo[1,2-b]pyridazine]"
13,0.1 to 0.5,"Oc1cc(-c2cn[nH]c2)ccc1-c1cc2sc(N3CCNCC3)nc2nn1 [Compound 334, 2-[6-(piperazin-1-yl)[1,3]thiazolo[4,5-c]pyridazin-3-yl]-5-(1H-pyrazol-4-yl)phenol]"
14,1 to 3,"CN1C[C@H](F)[C@H](Nc2nc3nnc(-c4ccc(-c5cn[nH]c5)cc4O)cc3s2)C1 [Compound 336, 2-(6-{[(3R,4S)-4-fluoro-1-methylpyrrolidin-3-yl]amino}[1,3]thiazolo[4,5-c]pyridazin-3-yl)-5-(1H-pyrazol-4-yl)phenol]"
15,0.5 to 1,"CC1(C)C=C(c2cc3sc(-c4ccc(-c5cn[nH]c5)cc4O)nc3cn2)CC(C)(C)N1 [Compound 337, 5-(1H-pyrazol-4-yl)-2-[6-(2,2,6,6-tetramethyl-1,2,3,6-tetrahydropyridin-4-yl)[1,3]thiazolo[4,5-c]pyridin-2-yl]phenol]"
16,0.5 to 1,"Oc1cc(-c2cn[nH]c2)ccc1-c1cc2sc(N3CC4(CCCNC4)C3)nc2nn1 [Compound 338, 2-[6-(2,6-diazaspiro[3.5]nonan-2-yl)[1,3]thiazolo[4,5-c]pyridazin-3-yl]-5-(1H-pyrazol-4-yl)phenol]"
17,≤ 0.1,"CN1CCC2(CC1)CCN2c1nc2nnc(-c3ccc(-c4cn[nH]c4)cc3O)cc2s1 [Compound 339, 2-[6-(7-methyl-1,7-diazaspiro[3.5]nonan-1-yl)[1,3]thiazolo[4,5-c]pyridazin-3-yl]-5-(1H-pyrazol-4-yl)phenol]"
18,1 to 3,"CN1CCC2(CCN(c3nc4nnc(-c5ccc(-c6cn[nH]c6)cc5O)cc4s3)C2)C1 (stereo not shown) [Compound 340, 2-[6-(7-methyl-2,7-diazaspiro[4.4]nonan-2-yl)[1,3]thiazolo[4.5-c]pyridazin-3-yl]-5-(1H-pyrazol-4-yl)phenol]"
19,0.5 to 1,"Oc1cc(-c2c[nH]nc2F)ccc1-c1cc2sc(N3CC4(CCNCC4)C3)nc2nn1 [Compound 341, 2-[6-(2,7-diazaspiro[3.5]nonan-2-yl)[1,3]thiazolo[4,5-c]pyridazin-3-yl]-5-(3-fluoro-1H-pyrazol-4-yl)phenol]"
20,0.1 to 0.5,"CN1C[C@H](Nc2nc3nnc(-c4ccc(-c5cn[nH]c5)cc4O)cc3s2)[C@@H](F)C1 [Compound 342, 2-(6-{[(3S,4S)-4-fluoro-1-methylpyrrolidin-3-yl]amino}[1,3]thiazolo[4,5-c]pyridazin-3-yl)-5-(1H-pyrazol-4-yl)phenol]"
21,0.1 to 0.5,"CN1CC(N(C)c2nc3nnc(-c4ccc(-c5cn[nH]c5)cc4O)cc3s2)C1 [Compound 343, 2-{6-[methyl(1-methylazetidin-3-yl)amino][1,3]thiazolo[4,5-c]pyridazin-3-yl}-5-(1H-pyrazol-4-yl)phenol]"
22,≤ 0.1,"Oc1cc(-c2cn[nH]c2)ccc1-c1cc2sc(N3CC[C@H]4CNCC[C@H]43)nc2nn1 [Compound 344, 2-{6-[(3aS,7aR)-octahydro-1H-pyrrolo[3,2-c]pyridin-1-yl][1,3]thiazolo[4,5-c]pyridazin-3-yl]-5-(1H-pyrazol-4-yl)phenol]"
23,0.1 to 0.5,"CN[C@H]1CC[C@@H](N(C)c2nc3nnc(-c4ccc(-c5cn[nH]c5)cc4O)cc3s2)CC1 [Compound 345, 2-(6-{methyl[(1s,4s)-4-(methylamino)cyclohexyl]amino}[1,3]thiazolo[4,5-c]pyridazin-3-yl)-5-(1H-pyrazol-4-yl)phenol]"
24,0.1 to 0.5,"CN(c1nc2nnc(-c3ccc(-c4cn[nH]c4)cc3O)cc2s1)[C@@H]1CNC[C@@H]1F [Compound 346, 2-(6-{[(3R,4S)-4-fluoropyrrolidin-3-yl](methyl)amino}[1,3]thiazolo[4,5-c]pyridazin-3-yl)-5-(1H-pyrazol-4-yl)phenol]"

row,SMILES,IC50 [µM]
1,"Cc1cn2cc(-c3cc4sc(N(C)C5CC6(C)CCC(C)(C5)N6)nc4cn3)nc2c(C)n1 [Compound 322, N-[(1R,3s,5S)-1,5-dimethyl-8-azabicyclo[3.2.1]octan-3-yl]-6-(6,8-dimethylimidazo[1,2-a]pyrazin-2-yl)-N-methyl[1,3]thiazolo[4,5-c]pyridin-2-amine]",≤ 0.1
2,"Cc1cn2cc(-c3ncc4nc(N(C)[C@H]5C[C@]6(C)CC[C@](C)(C5)N6)sc4n3)cc2c(C)n1 [Compound 323, N-[(1R,3s,5S)-1,5-dimethyl-8-azabicyclo[3.2.1]octan-3-yl]-5-(1,3-dimethylpyrrolo[1,2-a]pyrazin-7-yl)-N-methyl[1,3]thiazolo[5,4-d]pyrimidin-2-amine]",≤ 0.1
3,"Cc1cn2cc(-c3ncc4nc(N(C)[C@@H]5CC(C)(C)NC(C)(C)[C@@H]5F)sc4n3)cc(C#N)c2n1 [Compound 324, 6-(2-{[(3R,4R)-3-fluoro-2,2,6,6-tetramethylpiperidin-4-yl](methyl)amino}[1,3]thiazolo[5,4-d]pyrimidin-5-yl)-2-methylimidazo[1,2-a]pyridine-8-carbonitrile]",≤ 0.1
4,"Cc1cn2cc(-c3cc4sc(N(C)[C@@H]5CC(C)(C)NC(C)(C)[C@@H]5F)nc4cn3)cc(C#N)c2n1 [Compound 325, 6-(2-{[(3R,4R)-3-fluoro-2,2,6,6-tetramethylpiperidin-4-yl](methyl)amino}[1,3]thiazolo[4,5-c]pyridin-6-yl)-2-methylimidazo[1,2-a]pyridine-8-carbonitrile]",≤ 0.1
5,Cc1cn2cc(-c3cc4sc(N(C)[C@H]5C[C@]6(C)CC[C@@](C)(N6)[C@H]5F)nc4cn3)cc(F)c2n1 [Compound 326],≤ 0.1
6,"CN(c1nc2nnc(-c3ccc(-n4ccnc4)cc3O)cc2s1)C1CCNCC1 [Compound 327, 5-(1H-imidazol-1-yl)-2-{6-[methyl(piperidin-4-yl)amino][1,3]thiazolo[4,5-c]pyridazin-3-yl}phenol]",0.1 to 0.5
7,"CN(c1nc2nnc(-c3cc(F)c(-c4cn[nH]c4)cc3F)cc2s1)C1CCNCC1 [Compound 328, 3-[2,5-difluoro-4-(1H-pyrazol-4-yl)phenyl]-N-methyl-N-(piperidin-4-yl)[1,3]thiazolo[4,5-c]pyridazin-6-amine]",0.1 to 0.5
8,"CN(c1nc2nnc(-c3ccc(-c4c[nH]nc4F)cc3O)cc2s1)C1CCNCC1 [Compound 329, 5-(3-fluoro-1H-pyrazol-4-yl)-2-{6-[methyl(piperidin-4-yl)amino][1,3]thiazolo[4,5-c]pyridazin-3-yl}phenol]",≤ 0.1
9,"CN1CCC(N(C)c2nc3nnc(-c4ccc(-c5c[nH]nc5F)cc4O)cc3s2)CC1 [Compound 332, 5-(3-fluoro-1H-pyrazol-4-yl)-2-{6-[methyl(1-methylpiperidin-4-yl)amino][1,3]thiazolo[4,5-c]pyridazin-3-yl}phenol]",≤ 0.1
10,"Oc1cc(-c2cn[nH]c2)ccc1-c1nc2cnc(C3=CCNCC3)cc2s1 [Compound 335, 5-(1H-pyrazol-4-yl)-2-[6-(1,2,3,6-tetrahydropyridin-4-yl)[1,3]thiazolo[4,5-c]pyridin-2-yl]phenol]",1 to 3
